Assay results published in patent US20180221362A1, “EZH2 INHIBITORS AND MODULATION OF REGULATORY T-CELL FUNCTION” (Constellation Pharmaceuticals, Inc., priority 2015, published 2018).

Experiments:
[1] = system: FOXP3; test: FOXP3 expression by flow cytometry during Treg differentiation; type: cell-based, human; details: increasing concentrations, vs DMSO control; FIG. 3A
[2] = system: tumor-infiltrating immune cells; test: FACS analysis of tumor-infiltrating immune cells in CT26 tumors; type: in vivo, mouse; details: tumors isolated day 22
Protocol: (§1) Tumor implantation and dosing. CT26 mouse colon carcinoma cells (ATCC CRL-2638) were expanded in vitro and 1×10^5 cells/mouse were inoculated with 50% Matrigel into the subcutaneous flank region of 6-8 week old female BABL/C mice (Taconic). Mice were randomized once tumors were palpable (>200 mm^3) and dosing was started on the same day. […] Tumors were measured and body weight recorded every 2-3 days.
Isolation and analysis of tumor-infiltrating cells. Tumors were chopped into small pieces, digested with 3 mg/mL collagenase A and 100 μg/mL DNase I at 37° C. for 30 mins, followed by the addition of FBS. The digested tumor mass was filtered using […] filters, spun down and washed with PBS Immune cells were visualized and quantifed by FACS on the BD FACSCanto™ II flow cytometry analyzer (BD Bioscience).
The observed efficacy pictured in FIG. 11 was accompanied by changes in the immune infiltrate present in the tumors. Tumors were isolated from mice upon termination of the study (day 22), digested and stained for immune markers allowing for quantification of immune cell populations by FACS. […] Consistent with the reduced efficacy observed in the αPD1 group, we found increased proliferating Treg cells in this group along with decreased proliferating cytotoxic CD8 cells, especially when compared to the combination group (FIG. 11). This effect was also clear if groups treated with the EZH2 inhibitor were analyzed together, and against groups not treated with the EZH2 inhibitor (FIG. 6).

[3] = system: human Treg cells; test: Luminex cytokine assays of day 4 iTreg culture supernatants; type: cell-based; details: day 4 supernatants; FIG. 3C
Description: Luminex cytokine assays. Cytokines were quantified from day 4 cell supernatants using Luminex multiplex assays (HTH17MAG-14K-12, Millipore), as per the manufacturer's protocol.
The transcription factor FOXP3 is known to be an essential regulator of Treg cells, and therefore is important to understand if EZH2 plays any role in its expression.

[4] = system: CT26 mouse colon carcinoma cells; test: In vitro growth/sensitivity of CT26 carcinoma cells; type: cell-based; details: FIG. 9
Description: (§2) We first evaluated whether treatment treatment of CT26 cancer cells would be sensitive to EZH2 ihibition. Protocols using CT26 cancer cells as a model for testing immunotherapy protocols and in studies on host immune response are known.
CD8 T cells are known to be major effectors of anti-tumor efficacy in mice and humans. We also explored immune cell changes beyond what our in vitro experiments had predicted, and found several unanticipated observations. First, natural killer (NK) and NKT cells, also major drivers of anti-tumor activity were increased in Inhibitor 1-treated animals, while reduced in the αPD1 group (FIG. 12). This effect was also clear if groups treated with the EZH2 inhibitor were analyzed together, and against groups not treated with the EZH2 inhibitor (FIG. 7). Second, M2 tumor associated macrophages (TAM), known to be immuno-suppressive, reduced in Inhibitor 1-treated animals, while increased in αPD1-treated animals (FIG. 13). This effect was also observed if groups treated with the EZH2 inhibitor were analyzed together, and against groups not treated with the EZH2 inhibitor (FIG. 8). Similar results were also seen with Inhibitor 4. Growth of CT26 mouse colon carcinoma cells was assessed in the presence of increasing amounts of Inhibitor 4 concentrations. […].

[5] = system: CT26 mouse colon carcinoma cells; test: CT26 allograft transplantation tumor model; type: in vivo; details: BALB/c mice, 21-day treatment; Inhibitor 1 200 mg/kg s.c. BID, PD-1 antibody 200 μg/mouse IP every 3-4 days; FIG. 10
Protocol: as §1, §2
CD8 T cells are known to be major effectors of anti-tumor efficacy in mice and humans. We also explored immune cell changes beyond what our in vitro experiments had predicted, and found several unanticipated observations. […] This effect was also clear if groups treated with the EZH2 inhibitor were analyzed together, and against groups not treated with the EZH2 inhibitor (FIG. 7). […] This effect was also observed if groups treated with the EZH2 inhibitor were analyzed together, and against groups not treated with the EZH2 inhibitor (FIG. 8). […] Growth of CT26 mouse colon carcinoma cells was assessed in the presence of increasing amounts of Inhibitor 4 concentrations. […]

[6] = system: H3K27me3; test: H3K27me3 levels in treated FOXP3+ T-cells; type: cell-based, human; details: FIG. 3B

CCS(=O)(=O)N1CCC([C@@H](C)n2c(C)c(C(=O)NCc3c(OC)cc(C)[nH]c3=O)c3ccccc32)CC1 [Inhibitor 1]
FOXP3 expression (frequencies of FOXP3+ cells) [1]: no impact | NKT cells in tumors ([2]; FIG. 12): increased | natural killer (NK) cells in tumors ([2]; FIG. 12): increased | M2 tumor associated macrophages (TAM) in tumors ([2]; FIG. 13): reduced | secretion of IFNγ to the culture medium [3]: dose-dependent increase | secretion of IL-10 to the culture medium [3]: dose-dependent increase | secretion of IL-13 to the culture medium [3]: dose-dependent increase | CT26 cell sensitivity in vitro [4]: substantially no CT26 cell sensitivity | tumor growth inhibition efficacy (CT26 tumor volume) [5]: significantly efficacious | H3K27me3 in the same (FOXP3+) cells [6]: robustly decreased
